We go through 1 compound from patent US20230338568A1, “NOVEL ISOMERIC COMPOUNDS COMPRISING A RING-OPENED THIOSUCCINIMIDE GROUP, AN OLIGOPEPTIDE FRAGMENT AND A CHIRAL MOIETY” (priority 2020, published 2023).

In experiment [1] the test system is HER2 positive cell HCC1954. The experiment in a line: Cytotoxicity of α-ADCs in HER2 positive cell HCC1954 (CellTiter-Glo). It counts as cell-based, Human. The following applies: HER2 positive HCC1954, 72 h. On the procedure: (§1) Cell viability is tested using CellTiter-Glo® Luminescent Kit (Promega, Cat.# G7573) read by a Biotek Cytation3 Imaging reader.
(§2) Study design was shown as in Table 21 and Table 22. […] Cell vitality formula: Viability = (RLU (X) - RLU (Puro))/(RLU (Control) - RLU (Puro)) ^∗ 100%. A logistic model (4-parameter) will be used for data processing, IC50 calculation and curve fitting by Prism 6 software.
(In general: ATP-based viability assays read luminescence as a measure of living cells.)

The subject of experiment [2] is HER2 negative cell MDA-MB-468. The experiment in a line: Cytotoxicity of α-ADCs in HER2 negative cell MDA-MB-468 (CellTiter-Glo). The following applies: HER2 negative MDA-MB-468, 72 h. It counts as cell-based. On the procedure:
as §1, §2

In the case of `COc1cc2cc(c1Cl)N(C)C(=O)C[C@H](OC(=O)[C@H](C)N(C)C(=O)CCS)[C@]1(C)O[C@H]1[C@H](C)[C@@H]1C[C@@](O)(NC(=O)O1)[C@H](OC)/C=C/C=C(\C)C2` [DM1], the figures for the IC50 in experiment [1] and in experiment [2] were 4.2 nM and 1.5 nM, respectively.

For orientation: IC50 means the concentration at which inhibition is half-maximal.
